Results on one molecule are retold here after US20170333391A1, “METHOD FOR DELAYING THE ONSET OF PULMONARY FIBROSIS OR TREATING PULMONARY FIBROSIS” (EVERFRONT BIOTECH INC., priority 2016, published 2017).

The test system of test [1] is p-smad2/3 protein. The test can be described thus: p-smad2/3 protein expression in TGF-β1-induced NHLF, western blotting (Example 4). Format: cell-based, human. Conditions: uninduced control = 1, TGF-β1-only group A = 1.42. How it is done:
Normal Human lung fibroblasts (NHLF) were seeded into 6 cm culture dishes at a density of 2×10^5 cells/dish, comprising a control group and five experimental groups (6 dishes in total). The cells were cultured until the next day, and then the mediums were removed. Each group was respectively treated under the following conditions to conduct follow-up experiments: • (1) Control group: cells were cultured in a FGM-2 medium containing 1% serum for 36 hours; • (2) Group A: cells were cultured in a FGM-2 medium containing 1% serum and TGF-β1 (5 ng/ml) for 36 hours; • (3) Group B: cells were firstly cultured in a FGM-2 medium containing 1% serum and TGF-β1 (5 ng/ml) for 12 hours, and then compound (1) was added into the medium to provide a final concentration of 15 μg/ml; thereafter, the cells were cultured for another 24 hours; • (4) Group C: cells were firstly cultured in a FGM-2 medium containing 1% serum and TGF-β1 (5 ng/ml) for 12 hours, and then compound (1) was added into the medium to provide a final concentration of 30 μg/ml; thereafter, the cells were cultured for another 24 hours; • (5) Group D: cells were firstly cultured in a FGM-2 medium containing 1% serum and TGF-β1 (5 ng/ml) for 12 hours, and then compound (2) was added into the medium to provide a final concentration of 100 μg/ml; thereafter, the cells were cultured for another 24 hours; and • (6) Group E: cells were firstly cultured in a FGM-2 medium containing 1% serum and TGF-β1 (5 ng/ml) for 12 hours, and then compound (2) was added into the medium to provide a final concentration of 200 μg/ml; thereafter, the cells were cultured for another 24 hours.
Thereafter, the proteins in the cells of each group were extracted, and the expressions of BMP-7 protein, TGF-β protein and p-smad2/3 protein in the NHLF cells of each group were measured with western blotting. The results of the control group served as the basis for calculating the relative expression levels of the other groups.
For orientation: A western blot detects proteins with antibodies after separation by electrophoresis.

The test system of test [2] is type I collagen. Description: Type I collagen expression in TGF-β1-induced NHLF, western blotting (2-1). The conditions noted are these: uninduced group = 1, TGF-β1-only group = 3.61. Type of test: cell-based, human. As for the experimental part:
Normal Human lung fibroblasts (NHLF) were seeded into 6 cm culture dishes at a density of 2×10^5 cells/dish, comprising a control group and three experimental groups (4 dishes in total). The cells were cultured until the next day, and then the mediums were removed. Each group was respectively treated under the following conditions to conduct follow-up experiments: • (1) Positive control group: cells were cultured in a FGM-2 medium containing 1% serum for 36 hours; • (2) Negative control group: cells were cultured in a FGM-2 medium containing 1% serum and TGF-β1 (5 ng/ml) for 36 hours; • (3) Low-dose group: cells were firstly cultured in a FGM-2 medium containing 1% serum and TGF-β1 (5 ng/ml) for 12 hours, and then compound (1) was added into the medium to provide a final concentration of 15 μg/ml; thereafter, the cells were cultured for another 24 hours; and • (4) High-dose group: cells were firstly cultured in a FGM-2 medium containing 1% serum and TGF-β1 (5 ng/ml) for 12 hours, and then compound (1) was added into the medium to provide a final concentration of 25 μg/ml; thereafter, the cells were cultured for another 24 hours.
Thereafter, the proteins in the cells of each group were extracted, and the expressions of type I collagen in the NHLF cells of each group were measured with western blotting, wherein the β-actin served as the internal control. […]

The subject of test [3] is C57B/L6 mice injected with Bleomycin sulfate (inducer of pulmonary fibrosis). Description: Pulmonary function by unrestrained whole body plethysmography in Bleomycin sulfate mice. Format: in vivo. Conditions: compared to oil group; for accumulated volume (AV): p<0.01; for expiratory time (Te) / relaxation time (RT): p<0.05. As for the experimental part:
24 C57B/L6 mice (age: four weeks) were separated into four groups (6 mice in each group). Each group was respectively treated under the following conditions to conduct follow-up experiments: • (1) Control group (mice without pulmonary fibrosis; i.e., normal mice): 50 μl of PBS was administrated to each mouse by intratracheal injection, and then the mice were fed for 30 days; • (2) Oil group: 0.6 U/50 μl of Bleomycin sulfate (dissolved in PBS) was administrated to each mouse by intratracheal injection, and then 100 μl of olive oil was orally administrated to each mouse every day for 30 days; • (3) Low-dose group: 0.6 U/50 μl of Bleomycin sulfate (dissolved in PBS) was administrated to each mouse by intratracheal injection, and then compound (1) (10 mg/kg-body weight, prepared with olive oil to provide a final volume of 100 μl) was orally administrated to each mouse every day for 30 days; and • (4) High-dose group: 0.6 U/50 μl of Bleomycin sulfate (dissolved in PBS) was administrated to each mouse by intratracheal injection, and then compound (1) (50 mg/kg-body weight, prepared with olive oil to provide a final volume of 100 μl) was orally administrated to each mouse every day for 30 days.
In this experiment, the pulmonary functions of the mice from each group of Example 5 were evaluated with Unrestrained Whole Body Plethysmography (WBP). The inspiratory and expiratory flow rates of mice were calculated by measuring changes in the air inside and outside of a specific chamber, and respiratory parameters can be obtained therefrom. The respiratory parameters comprise the peak inspiratory flow (PIF) (i.e., the maximal volume being inspired in a period of time), peak expiratory flow (PEF) (i.e., the maximal volume being expired in a period of time), inspiratory time (Ti) (i.e., the average time of inspiration in a period of time), expiratory time (Te) (i.e., the average time of expiration in a period of time), respiratory rate (RR) (i.e., the numbers of breath per minute), accumulated volume (AV) (i.e., the average volume of air being breathed per minute), tidal volume (TV) (i.e., the average volume of air being expired per time), relaxation time (RT) (i.e., the average time needed for raising the pressure of air hatch to 40% of the maximal value), etc.

Setting [4] is: High-dose group, compound (1) 50 mg/kg orally daily 30 days.
The mark [5] stands for this setting: Low-dose group, compound (1) 10 mg/kg orally daily 30 days.

In the case of `CCCC=C1OC(=O)c2ccccc21` [compound (1)], the “Relative expression level (fold) p-smad2/3 protein” value stood at 0.82 fold in test [1] (Group B: TGF-β1 5 ng/ml 12 h, then compound (1) 15 μg/ml 24 h) and 1.08 fold in test [1] (Group C: TGF-β1 5 ng/ml 12 h, then compound (1) 30 μg/ml 24 h). The “Relative expression level of the type I collagen (fold)” value in test [2] (High-dose group: TGF-β1 5 ng/ml 12 h, then compound (1) 25 μg/ml 24 h) was determined as 1.83 fold; in test [2] (Low-dose group: TGF-β1 5 ng/ml 12 h, then compound (1) 15 μg/ml 24 h) it was 3.56 fold. For the same molecule, the other respiratory parameters entry in test [3] (setting [4]) and in test [3] (setting [5]) was “closer to the control group” each time. In addition, the “accumulated volume (AV)” value in test [3] (setting [4]) and in test [3] (setting [5]) was “significantly increased” in each case. For the same molecule, the “expiratory time (Te)” value in test [3] (setting [4]) and in test [3] (setting [5]) was “significantly decreased” in each case. The “relaxation time (RT)” value in test [3] (setting [4]) and in test [3] (setting [5]) was “significantly decreased” throughout.
